According to US20040204590A1, “Ep4 receptor agonist, compositions and methods thereof” (priority 2001, published 2004):

Key:
TRAB-11 cells = assay: Effect on intracellular cAMP in TRAB-11 cells; assay type: cell-based, rat
Description: (§1) RCT-1 and RCT-3 are clonal cell lines immortalized by SV-40 large T antigen from cells released from fetal rat calvair by a cmbination collagenase/hyaluronidase digestion. RCT-1 cells, derived from cells released during the first 10 minutes of digestion (fraction I), are cultured in RPMI 1640 medium (BRL) with 10% fetal bovine serum and 0.4 mg/ml G418 (BRL). These cells differentiate and express osteoblastic features upon retinoic acid treatment. RCT-3 cells, immortalized from osteoblast-enriched fraction […] cells, are cultured in F-12 medium (BRL) with 5% Fetal bovine serum and 0.4 mg/ml G418. TRAB-11 cells are also immortalized by SV40 large T antigen from adult rat tibia and are cultured in RPMI 1640 medium with 10% FBS and 0.4 mg/ml G418. ROS 17/2.8 rat osteosarcoma cells are cultured in F-12 containing 5% FBS. Osteoblast-enriched (fraction III) primary fetal rat calvaria cells are obtained by collagenase/hyaluronidase digestion of calvariae of 19 day-old rat fetuses. See Rodan et al., Growth stimulation of rat calvaria osteoblastic cells by acidic FGF, Endocrinology, 121, 1919-1923 (1987), which is incorporated by reference herein in its entirety. Cells are released during 30-50 minutes digestion (fraction III) and are cultured in F-12 medium containing 5% FBS. […]

RCT-3 cells [1] = assay: EP4 mRNA expression in RCT-3 cells (Northern blot); assay type: cell-based, rat
Description: as §1

[2] = system: EP4 expression in bone marrow cells; assay: Localization of EP4 mRNA in bone tissue by in situ hybridization; assay type: in vivo, rat; conditions: rats, single anabolic dose
Description: (§2) For mRNA localization experiments, 5-week old Sprague-Dawley rats (Charles River) are euthanized by CO2, their tibiae and calvariae are excised, cleaned of soft tissues and frozen immediately in liquid nitrogen. For EP4 regulation experiments, 6-week old rats are given a single injection of either vehicle (7% ethanol in sterile water) or an anabolic dose of PGE2 (Cayman Chemical, Ann Arbor, Mich.), 3-6 mg/kg in the same vehicle) intraperitoneally. Animals are euthanized at several time points post-injection and their tibiae and calvariae, as well as samples from lung and kidney tissues are frozen in liquid nitrogen.
Frozen tibiae are sectioned coronally at […] thickness and sections are mounted on charged slides (Probe On Plus, Fisher Scientific, Springfield, N.J.) and are kept at −70° C. until hybridization. cRNA probes are labeled with ^35S-UPgS (ICN, Costa Mesa, Calif.) using a Riboprobe II kit (Promega Madison, Wis.). Hybridization is performed overnight at 50° C. See M. Weinreb et al., Different pattern of alkaline phosphatase, osteopontin and osteocalcin expression in developing rat bone visualized by in-situ hybridization, J. Bone Miner Res., 5, 831-842 (1990) and D. Shinar et al., Expression of alphav and beta3 integrin subunits in rat osteoclasts in situ, J. Bone Miner. Res., 8, 403-414 (1993), which are both incorporated by reference herein in their entirety. […]

RP-1 periosteal cells = assay: EP4 and EP2 mRNA expression in RP-1 periosteal cells (Northern blot); assay type: cell-based, rat; conditions: RP-1 cells
Description: RP-1 periosteal cells are spontaneously immortalized from primary cultures of periosteal cells from tibae of 4-week old Sprague-Dawley rats and are cultured in DMEM (BRL, Gaithersburg, Md.) with 10% fetal bovine serum (JRH Biosciences, Lenexa, Kans.).
Total RNA is extracted from the tibial metaphysis or diaphysis and calvaria using a guanidinium isothiocyanate-phenol-chloroform method after pulverizing frozen bone samples by a tissue homogenizer. See P. Chomczynski et al., Single-step method of RNA isolation by acid guanidium thiocyanate-phenol-chloroform extraction., Analyt Biochem, 162, 156-159 (1987), which is incorporated by reference herein in its entirety. RNA samples ([…]) are separated on 0.9% agarose/formaldehyde gels and transferred onto nylon membranes (Boehringer Mannheim, Germany). Membranes are prehybridized in Hybrisol I (Oncor, Gaithersburg, Md.) and 0.5 mg/ml sonicated salmon sperm DNA (Boehringer) at 42° C. for 3 hours and are hybridized at 420C with rat EP2 and mouse EP4 cDNA probes labeled with [^32P]-dCTP (Amersham, Buckinghamshire, UK) by random priming using the rediprime kit (Amersham). After hybridization, membranes are washed 4 times in 2×SSC+0.1% SDS at room temperature for a total of 1 hour and once with 0.2×SSC+0.1% SDS at 550C for 1 hour and then exposed to Kodak XAR 2 film at −70° C. using intensifying screens. […]

[3] = system: ROS 17/2.8 rat osteosarcoma cells; assay: Effect on intracellular cAMP in ROS 17/2.8 cells; assay type: cell-based
Description: as §1

EP4 mRNA in bone tissue = assay: EP4 and EP2 mRNA levels in bone tissue of injected rats (Northern blot); assay type: in vivo, rat; conditions: injected 3-6 mg/Kg
Description: as §2
Total RNA is extracted from the tibial metaphysis or diaphysis and calvaria using a guanidinium isothiocyanate-phenol-chloroform method after pulverizing frozen bone samples by a tissue homogenizer. See P. Chomczynski et al., Single-step method of RNA isolation by acid guanidium thiocyanate-phenol-chloroform extraction., Analyt Biochem, 162, 156-159 (1987), which is incorporated by reference herein in its entirety. RNA samples ([…]) are separated on 0.9% agarose/formaldehyde gels and transferred onto nylon membranes (Boehringer Mannheim, Germany). […]

RCT-3 cells [4] = assay: Effect on intracellular cAMP in RCT-3 cells; assay type: cell-based, rat
Description: as §1

## CCCCC[C@H](O)/C=C/[C@H]1[C@H](O)CC(=O)[C@@H]1C/C=C\CCCC(=O)O [PGE2]
TRAB-11 cells
  effect on intracellular cAMP: markedly induced
RCT-3 cells [1]
  EP4 mRNA levels: no effect
[2]
  expression of EP4 in bone marrow cells: increased
RP-1 periosteal cells; 10^−6 M
  EP4 mRNA levels: rapidly increases
RP-1 periosteal cells; before or after treatment
  EP2 mRNA expression: not expressed
[3]
  effect on intracellular cAMP: no effect
EP4 mRNA in bone tissue; five-week-old male rats
  EP4 mRNA levels in the tibial diaphysis: rapidly increased
EP4 mRNA in bone tissue; rats
  EP2 mRNA in bone tissue: does not induce
RCT-3 cells [4]
  effect on intracellular cAMP: markedly induced
